Measured values published in patent publication US6525001B1, “Substituted pyrimidine and pyridine herbicides” (Mid-American Commercialization Corporation, priority 1997, dated 2003).

How the values were obtained:
Experiment in all cases: Test B pre-/postemergence
Type in all cases: in vivo
Set-up in all cases: key: 0 is no effect; 10 is complete control
[1] = system: blackgrass (Alopecurus myosuroides)
In short: (§1)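 Seeds were planted and sprayed preemergence, while plants at 2 to 18 cm (1- to 4-leaf stage) were sprayed postemergence at the same time, with test chemical in a non-phytotoxic solvent mixture containing surfactant. After twelve to sixteen days in a greenhouse, injury was rated visually against untreated controls on a 0–10 scale.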

wild oat (Avena fatua) = system: wild oat (Avena fatua)
In short: as §1

[2] = system: purple nutsedge (Cyperus rotundus)
In short: as §1

[3] = system: crabgrass (Digitaria sanguinalis)
In short: as §1

soybean (Glycine max) = system: soybean (Glycine max)
In short: as §1

[4] = Preemergence, Rate 62 g/ha, scale of 0 to 10

Row | SMILES | Plant response rating, Blackgrass [1, 4] | Blackgrass plant response rating ([1]; Rate 62 g/ha, Postemergence) | Blackgrass plant response rating ([1]; Rate 125 g/ha, Postemergence) | Plant response rating, Blackgrass ([1]; Rate 125 g/ha, Preemergence) | Plant response rating, Blackgrass ([1]; Rate 250 g/ha, Postemergence) | Plant response rating, Blackgrass ([1]; Rate 250 g/ha, Preemergence) | Plant response rating, Blackgrass ([1]; Rate 500 g/ha, Postemergence) | Plant response rating, Blackgrass ([1]; Rate 500 g/ha, Preemergence) | Plant response rating, Wild oats (wild oat (Avena fatua); [4]) | Wild oats plant response rating (wild oat (Avena fatua); Rate 62 g/ha, Postemergence) | Wild oats plant response rating (wild oat (Avena fatua); Rate 125 g/ha, Postemergence) | Plant response rating, Wild oats (wild oat (Avena fatua); Rate 125 g/ha, Preemergence) | Plant response rating, Wild oats (wild oat (Avena fatua); Rate 250 g/ha, Postemergence) | Plant response rating, Wild oats (wild oat (Avena fatua); Rate 250 g/ha, Preemergence) | Plant response rating, Wild oats (wild oat (Avena fatua); Rate 500 g/ha, Postemergence) | Plant response rating, Wild oats (wild oat (Avena fatua); Rate 500 g/ha, Preemergence) | Plant response rating, Nutsedge [2, 4] | Nutsedge plant response rating ([2]; Rate 62 g/ha, Postemergence) | Nutsedge plant response rating ([2]; Rate 125 g/ha, Postemergence) | Plant response rating, Nutsedge ([2]; Rate 250 g/ha, Postemergence) | further results
1 | Cc1cnc(-c2ccc(C(F)(F)F)cc2)nc1Cn1cc(Br)cn1 [Compound 54] | 0 | 1 | 1 | 1 | 2 | 3 | 3 | 4 | 0 | 1 | 2 | 1 | 3 | 3 | 3 | 4 | 0 | 0 | 0 | 0 | Plant response rating, Nutsedge ([2]; Rate 125 g/ha, Preemergence): 0; Plant response rating, Nutsedge ([2]; Rate 250 g/ha, Preemergence): 0; Plant response rating, Nutsedge ([2]; Rate 500 g/ha, Postemergence): 0; Plant response rating, Nutsedge ([2]; Rate 500 g/ha, Preemergence): 0; Plant response rating, Crabgrass [3, 4]: 0; Crabgrass plant response rating ([3]; Rate 62 g/ha, Postemergence): 2; Crabgrass plant response rating ([3]; Rate 125 g/ha, Postemergence): 4; Plant response rating, Crabgrass ([3]; Rate 125 g/ha, Preemergence): 0; Plant response rating, Crabgrass ([3]; Rate 250 g/ha, Postemergence): 5; Plant response rating, Crabgrass ([3]; Rate 250 g/ha, Preemergence): 3; Plant response rating, Crabgrass ([3]; Rate 500 g/ha, Postemergence): 5; Plant response rating, Crabgrass ([3]; Rate 500 g/ha, Preemergence): 8; Plant response rating, Soybean (soybean (Glycine max); [4]): 0; Soybean plant response rating (soybean (Glycine max); Rate 62 g/ha, Postemergence): 0; Soybean plant response rating (soybean (Glycine max); Rate 125 g/ha, Postemergence): 3; Plant response rating, Soybean (soybean (Glycine max); Rate 125 g/ha, Preemergence): 0; Plant response rating, Soybean (soybean (Glycine max); Rate 250 g/ha, Postemergence): 4; Plant response rating, Soybean (soybean (Glycine max); Rate 250 g/ha, Preemergence): 0; Plant response rating, Soybean (soybean (Glycine max); Rate 500 g/ha, Postemergence): 4; Plant response rating, Soybean (soybean (Glycine max); Rate 500 g/ha, Preemergence): 0
2 | Cc1cnc(-n2cnc(C(F)(F)F)c2)nc1C(=O)c1cccc(C(F)(F)F)c1 [Compound 61] | 1 | 3 | 4 | 3 | 6 | 5 | 8 | 8 | 4 | 3 | 3 | 5 | 3 | 7 | 5 | 8 | 0 | 0 | 0 | 0 | Plant response rating, Nutsedge ([2]; Rate 125 g/ha, Preemergence): 0; Plant response rating, Nutsedge ([2]; Rate 250 g/ha, Preemergence): 0; Plant response rating, Crabgrass [3, 4]: 3; Crabgrass plant response rating ([3]; Rate 62 g/ha, Postemergence): 3; Crabgrass plant response rating ([3]; Rate 125 g/ha, Postemergence): 3; Plant response rating, Crabgrass ([3]; Rate 125 g/ha, Preemergence): 5; Plant response rating, Crabgrass ([3]; Rate 250 g/ha, Postemergence): 7; Plant response rating, Crabgrass ([3]; Rate 250 g/ha, Preemergence): 8; Plant response rating, Crabgrass ([3]; Rate 500 g/ha, Postemergence): 9; Plant response rating, Crabgrass ([3]; Rate 500 g/ha, Preemergence): 10; Plant response rating, Soybean (soybean (Glycine max); [4]): 0; Soybean plant response rating (soybean (Glycine max); Rate 62 g/ha, Postemergence): 4; Soybean plant response rating (soybean (Glycine max); Rate 125 g/ha, Postemergence): 5; Plant response rating, Soybean (soybean (Glycine max); Rate 125 g/ha, Preemergence): 1; Plant response rating, Soybean (soybean (Glycine max); Rate 250 g/ha, Postemergence): 5; Plant response rating, Soybean (soybean (Glycine max); Rate 250 g/ha, Preemergence): 1; Plant response rating, Soybean (soybean (Glycine max); Rate 500 g/ha, Postemergence): 6; Plant response rating, Soybean (soybean (Glycine max); Rate 500 g/ha, Preemergence): 2
3 | Cc1cnc(-n2cnc(C(F)(F)F)n2)nc1C(=O)c1cccc(OC(F)(F)F)c1 [Compound 64] | 5 | 4 | 5 | 6 | 7 | 6 | 9 | 9 | 3 | 3 | 4 | 4 | 5 | 5 | 7 | 9 | 0 | 0 | 0 | 0 | Plant response rating, Nutsedge ([2]; Rate 500 g/ha, Postemergence): 2; Plant response rating, Nutsedge ([2]; Rate 500 g/ha, Preemergence): 2; Plant response rating, Crabgrass [3, 4]: 9; Crabgrass plant response rating ([3]; Rate 62 g/ha, Postemergence): 4; Crabgrass plant response rating ([3]; Rate 125 g/ha, Postemergence): 5; Plant response rating, Crabgrass ([3]; Rate 125 g/ha, Preemergence): 10; Plant response rating, Crabgrass ([3]; Rate 250 g/ha, Postemergence): 9; Plant response rating, Crabgrass ([3]; Rate 250 g/ha, Preemergence): 10; Plant response rating, Crabgrass ([3]; Rate 500 g/ha, Postemergence): 9; Plant response rating, Crabgrass ([3]; Rate 500 g/ha, Preemergence): 10; Plant response rating, Soybean (soybean (Glycine max); [4]): 0; Soybean plant response rating (soybean (Glycine max); Rate 62 g/ha, Postemergence): 2; Soybean plant response rating (soybean (Glycine max); Rate 125 g/ha, Postemergence): 3; Plant response rating, Soybean (soybean (Glycine max); Rate 125 g/ha, Preemergence): 1; Plant response rating, Soybean (soybean (Glycine max); Rate 250 g/ha, Postemergence): 5; Plant response rating, Soybean (soybean (Glycine max); Rate 250 g/ha, Preemergence): 1; Plant response rating, Soybean (soybean (Glycine max); Rate 500 g/ha, Postemergence): 6; Plant response rating, Soybean (soybean (Glycine max); Rate 500 g/ha, Preemergence): 1
